Measured values as given in patent publication US20260217735A1, “HETEROCYCLES AND USES THEREOF” (Kumquat Biosciences Inc., priority 2023, published 2026).

Columns and labels:
KRAS WT = target: T1, KRAS WT (Homo sapiens, UniProt P01116); experiment: HTRF assay, wildtype KRAS interaction with SOS1; assay type: biochemical; conditions: bins <500 nM / 500 nM to 1000 nM, read-out: Inhibition of KRAS WT (IC50)
T1 construct: made in house; host or cells: E. coli, e.g. BL21 (DE3)

KRAS G12S = target: T2, KRAS G12S (Homo sapiens, UniProt P01116, G12S); experiment: HTRF assay, KRAS G12S interaction with SOS1; assay type: biochemical; conditions: bins <500 nM / 500 nM to 1000 nM, read-out: Inhibition of KRAS G12S (IC50)
T2 construct: made in house; host or cells: E. coli, e.g. BL21 (DE3)
T2 sequence (P01116 1-188 isoform P01116-2 G12S): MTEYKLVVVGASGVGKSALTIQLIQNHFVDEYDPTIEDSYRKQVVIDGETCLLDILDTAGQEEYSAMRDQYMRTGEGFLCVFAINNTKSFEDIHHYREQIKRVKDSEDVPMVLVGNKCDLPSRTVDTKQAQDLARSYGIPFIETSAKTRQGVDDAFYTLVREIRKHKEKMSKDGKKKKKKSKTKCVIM

KRAS G12D = target: T3, KRAS G12D (Homo sapiens, UniProt P01116, G12D); experiment: HTRF assay, KRAS G12D interaction with SOS1; assay type: biochemical; conditions: bins <500 nM / 500 nM to 1000 nM, read-out: Inhibition of KRAS G12D (IC50)
T3 construct: made in house; host or cells: E. coli, e.g. BL21 (DE3)
T3 sequence (P01116 1-188 isoform P01116-2 G12D): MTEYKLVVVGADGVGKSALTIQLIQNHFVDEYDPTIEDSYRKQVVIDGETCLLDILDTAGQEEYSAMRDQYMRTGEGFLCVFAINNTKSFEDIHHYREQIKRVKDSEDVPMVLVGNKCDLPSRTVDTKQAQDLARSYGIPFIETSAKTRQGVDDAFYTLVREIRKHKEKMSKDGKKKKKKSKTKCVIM

MiaPaca2 cells = experiment: Ras cellular assay, growth of cells with K-Ras G12C mutation; assay type: cell-based; conditions: Homo sapiens, MIA PaCa-2; cell proliferation assay; bins ≤500 nM / >500 nM; read-out: Inhibition of MiaPaca2 Cells (IC50)
Outline: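 MIA PaCa-2 cells (K-Ras G12C, about 125-150 cells/well) grown in 0.25% soft agar over a 0.6% agar base, compound added on day 2 at 0.3% final DMSO. Growth read on day 10 by Cell Titer 96 AQueous absorbance (490 nm, reference 660 nm) against time-zero wells; IC50 from four-parameter fit.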

KRAS G12V = target: T4, KRAS G12V (Homo sapiens, UniProt P01116, G12V); experiment: HTRF assay, KRAS G12V interaction with SOS1; assay type: biochemical; conditions: bins <500 nM / 500 nM to 1000 nM, read-out: Inhibition of KRAS G12V (IC50)
T4 construct: made in house; host or cells: E. coli, e.g. BL21 (DE3)
T4 sequence (P01116 1-188 isoform P01116-2 G12V): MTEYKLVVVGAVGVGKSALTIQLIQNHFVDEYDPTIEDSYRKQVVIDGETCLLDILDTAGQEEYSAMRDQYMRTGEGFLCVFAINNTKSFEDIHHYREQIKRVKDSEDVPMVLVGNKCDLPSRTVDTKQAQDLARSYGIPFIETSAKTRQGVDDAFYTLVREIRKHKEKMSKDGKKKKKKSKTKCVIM

T1 sequence (P01116 1-188 isoform P01116-2): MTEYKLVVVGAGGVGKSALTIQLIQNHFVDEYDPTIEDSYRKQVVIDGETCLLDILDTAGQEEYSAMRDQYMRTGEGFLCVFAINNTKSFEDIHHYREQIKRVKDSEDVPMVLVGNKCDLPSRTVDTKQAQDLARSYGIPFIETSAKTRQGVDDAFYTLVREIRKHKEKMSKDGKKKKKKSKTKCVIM

Compound | IC50 (KRAS WT) [µM] | IC50 (KRAS G12S) [µM] | IC50 (KRAS G12D) [µM] | IC50 (MiaPaca2 cells) [µM] | IC50 (KRAS G12V) [µM]
CCN(c1nc(OC[C@@]23CCCN2C[C@H](F)C3)nc2c(F)c(-c3ccc(F)c4sc(N)c(C#N)c34)c(C3CC3)cc12)[C@@H]1CCN(C(=O)n2ccnc2C)[C@@H]1C [Compound 171, 2-amino-4-(6-cyclopropyl-4-(ethyl((2R,3R)-2-methyl-1-(2-methyl-1H-imidazole-1-carbonyl)pyrrolidin-3-yl)amino)-8-fluoro-2-(((2R,7aS)-2-fluorotetrahydro-1H-pyrrolizin-7a(5H)-yl)methoxy)quinazolin-7-yl)-7-fluorobenzo[b]thiophene-3-carbonitrile] | < 0.5 | < 0.5 | < 0.5 | ≤ 0.5 | < 0.5
CCN(c1nc(OC[C@@]23CCCN2C[C@H](F)C3)nc2c(F)c(-c3ccc(F)c4sc(N)c(C#N)c34)c(Cl)cc12)[C@@H]1CCN(C(=O)n2cc(C)nc2C#N)[C@@H]1C [Compound 104, 1-((2R,3R)-3-((7-(2-amino-3-cyano-7-fluorobenzo[b]thiophen-4-yl)-6-chloro-8-fluoro-2-(((2R,7aS)-2-fluorotetrahydro-1H-pyrrolizin-7a(5H)-yl)methoxy)quinazolin-4-yl)(ethyl)amino)-2-methylpyrrolidine-1-carbonyl)-4-methyl-1H-imidazole-2-carbonitrile] | < 0.5 | < 0.5 | < 0.5 | ≤ 0.5 | < 0.5
CC[C@H]1N(C(=O)n2cnc(C#N)c2C)C[C@]12CCCCN(c1nc(OC[C@@]34CCCN3C[C@H](F)C4)nc3c(F)c(-c4ccc(F)c5sc(N)c(C#N)c45)c(Cl)cc13)C2 [Compound 152, 1-((1R,4R)-6-(7-(2-amino-3-cyano-7-fluorobenzo[b]thiophen-4-yl)-6-chloro-8-fluoro-2-(((2R,7aS)-2-fluorotetrahydro-1H-pyrrolizin-7a(5H)-yl)methoxy)quinazolin-4-yl)-1-ethyl-2,6-diazaspiro[3.6]decane-2-carbonyl)-5-methyl-1H-imidazole-4-carbonitrile] | < 0.5 | < 0.5 | < 0.5 | ≤ 0.5 | < 0.5
CCN(c1nc(OC[C@@]23CCCN2C[C@H](F)C3)nc2c(F)c(-c3ccc(F)c4sc(N)c(C#N)c34)c(C(F)(F)F)cc12)[C@@H]1CCN(C(=O)n2cnc(F)n2)[C@@H]1C (atropisomer, axis not shown; (aS)) [Compound 125, 2-amino-4-((S)-4-(ethyl((2R,3R)-1-(3-fluoro-1H-1,2,4-triazole-1-carbonyl)-2-methylpyrrolidin-3-yl)amino)-8-fluoro-2-(((2R,7aS)-2-fluorotetrahydro-1H-pyrrolizin-7a(5H)-yl)methoxy)-6-(trifluoromethyl)quinazolin-7-yl)-7-fluorobenzo[b]thiophene-3-carbonitrile] | < 0.5 | < 0.5 | < 0.5 | ≤ 0.5 | < 0.5
Cc1nc(C#N)cn1C(=O)N1C[C@]2(CCCCN(c3nc(OC[C@@]45CCCN4C[C@H](F)C5)nc4c(F)c(-c5ccc(F)c6sc(N)c(C#N)c56)c(Cl)cc34)C2)[C@H]1C [Compound 165, 1-((1R,4R)-6-(7-(2-amino-3-cyano-7-fluorobenzo[b]thiophen-4-yl)-6-chloro-8-fluoro-2-(((2R,7aS)-2-fluorotetrahydro-1H-pyrrolizin-7a(5H)-yl)methoxy)quinazolin-4-yl)-1-methyl-2,6-diazaspiro[3.6]decane-2-carbonyl)-2-methyl-1H-imidazole-4-carbonitrile] | < 0.5 | < 0.5 | < 0.5 | ≤ 0.5 | < 0.5

Other lines, results leading:

IC50 (KRAS WT) [µM] | IC50 (KRAS G12S) [µM] | IC50 (KRAS G12D) [µM] | IC50 (MiaPaca2 cells) [µM] | IC50 (KRAS G12V) [µM] | Compound
< 0.5 | < 0.5 | < 0.5 | ≤ 0.5 | < 0.5 | C[C@@H]1[C@H](N(C)c2nc(OC[C@@]34CCCN3C[C@H](F)C4)nc3c(F)c(-c4ccc(F)c5sc(N)c(C#N)c45)c(Cl)cc23)CCN1C(=O)n1ccnc1Cl [Compound 178, 2-amino-4-(6-chloro-4-(((2R,3R)-1-(2-chloro-1H-imidazole-1-carbonyl)-2-methylpyrrolidin-3-yl)(methyl)amino)-8-fluoro-2-(((2R,7aS)-2-fluorotetrahydro-1H-pyrrolizin-7a(5H)-yl)methoxy)quinazolin-7-yl)-7-fluorobenzo[b]thiophene-3-carbonitrile]
< 0.5 | < 0.5 | < 0.5 | ≤ 0.5 | < 0.5 | C[C@@H]1[C@H](N(C)c2nc(OC[C@@]34CCCN3C[C@H](F)C4)nc3c(F)c(-c4ccc(F)c5sc(N)c(C#N)c45)c(Cl)cc23)CCN1C(=O)n1cnc(CC#N)c1 [Compound 183, 2-amino-4-(6-chloro-4-(((2R,3R)-1-(4-(cyanomethyl)-1H-imidazole-1-carbonyl)-2-methylpyrrolidin-3-yl)(methyl)amino)-8-fluoro-2-(((2R,7aS)-2-fluorotetrahydro-1H-pyrrolizin-7a(5H)-yl)methoxy)quinazolin-7-yl)-7-fluorobenzo[b]thiophene-3-carbonitrile]
< 0.5 | < 0.5 | < 0.5 | ≤ 0.5 | < 0.5 | CC1C(N(C)c2nc(OC[C@@]34CCCN3C[C@H](F)C4)nc3c(F)c(-c4ccc(F)c5sc(N)c(C#N)c45)c(Cl)cc23)CCCN1C(=O)n1ccnc1 (stereo partly drawn) [Compound 187, 4-(4-((1-(1H-imidazole-1-carbonyl)-2-methylpiperidin-3-yl)(methyl)amino)-6-chloro-8-fluoro-2-(((2R,7aS)-2-fluorotetrahydro-1H-pyrrolizin-7a(5H)-yl)methoxy)quinazolin-7-yl)-2-amino-7-fluorobenzo[b]thiophene-3-carbonitrile]
< 0.5 | < 0.5 | < 0.5 | ≤ 0.5 | < 0.5 | C[C@@H]1[C@H](N(C)c2nc(OC[C@@]34CCCN3C[C@H](F)C4)nc3c(F)c(-c4ccc(F)c5sc(N)c(C#N)c45)c(Cl)cc23)CCN1C(=O)n1ccc(C#N)n1 [Compound 126, 1-((2R,3R)-3-((7-(2-amino-3-cyano-7-fluorobenzo[b]thiophen-4-yl)-6-chloro-8-fluoro-2-(((2R,7aS)-2-fluorotetrahydro-1H-pyrrolizin-7a(5H)-yl)methoxy)quinazolin-4-yl)(methyl)amino)-2-methylpyrrolidine-1-carbonyl)-1H-pyrazole-3-carbonitrile]
< 0.5 | < 0.5 | < 0.5 | ≤ 0.5 | < 0.5 | Cc1cn(C(=O)N2CC[C@@H](N(C)c3nc(OC[C@@]45CCCN4C[C@H](F)C5)nc4c(F)c(-c5ccc(F)c6sc(N)c(C#N)c56)c(Cl)cc34)[C@H]2C)cn1 [Compound 144, 2-amino-4-(6-chloro-8-fluoro-2-(((2R,7aS)-2-fluorotetrahydro-1H-pyrrolizin-7a(5H)-yl)methoxy)-4-(methyl((2R,3R)-2-methyl-1-(4-methyl-1H-imidazole-1-carbonyl)pyrrolidin-3-yl)amino)quinazolin-7-yl)-7-fluorobenzo[b]thiophene-3-carbonitrile]
